Assay results as given in patent US20190017999A1, “IN VITRO SKIN IMMUNE SYSTEM SIMULATION SYSTEM” (Seoul National University R&DB Foudation, priority 2015, published 2019).
Entries after “also recorded” stand apart in the source; their conditions may differ.

B1: IL-1a: typical factor occurring in the peritumoral environment and inflammatory conditions (protein, UniProt P01583 113-271, looked up)
Interleukin-1 alpha: SAPFSFLSNVKYNFMRIIKYEFILNDALNQSIIRANDQYLTAAALHNLDEAVKFDMGAYKSSKDDAKITVILRISKTQLYVTAQDEDQPVLLKEMPEIPKTITGSETNLLFFWETHGTKNYFTSVAHPNLFIATKQDYWVCLAGGPPSITDFQILENQA

Key:
Type in all cases: cell-based, human
VE-cadherin = VE-cadherin immunostaining of cell-cell junctions in microvessels; conditions: 5 ng/ml TNF-α-treated microvessels versus control microvessels (FIG. 5B)
Method: (§1) Human umbilical vein endothelial cells (HUVEC, Lonza) were cultured in endothelial cell growth medium (EGM-2, Lonza). Normal human lung fibroblasts (LF, Lonza) were cultured in fibroblast growth medium (FGM-2, Lonza). Human glioblastoma cells (U87MG, ATCC, Virginia) were cultured in DMEM medium supplemented with 10% fetal bovine serum (FBS), penicillin (100 U/ml) and streptomycin (100 U/ml). MDA-MA-231 cells were purchased from the ATCC (Manassas, Va.). MDA-MB-231 cells were transfected with a pEGFP plasmid, and cells were selected using 1 mg/ml G418 (A.G. scientific, Inc.). […]
For microvascular DIC (Differential Interference Contrast Microscope) imaging, the Nikon AE31 microscope was used. […] Confocal images were analyzed using IMARIS software (Bitplane, Switzerland). For fluorescence imaging, FITC-dextran-injected samples were imaged using the IX81 inverted microscope (Olympus).
As a vessel to assess the transendothelial migration of MDA-MB-231 cancer cells, the microvessel obtained in the present invention was used. […] The number of cancer cells intravasated into the microvessels was manually counted. […] In addition, the effect of TNF-α on cancer cell intravasation was analyzed. the rate of intravasation with or without TNF-α treatment was compared (n=7 chips per condition). […]

[1] = test system: MDA-MB-231 cancer cells intravasating into microvessels; test: Cancer intravasation assay in microfluidic chip
Method: as §1, with “Inc.). MDA-MA-231 GFP cells obtained from monoclones were incubated in RPMI1640 (WELGENE, Korea) supplemented with 10% fetal bovine serum, 1% penicillin/streptomycin (Gibco, BRL) and 250 μg/ml G418 (A.G. scientific, Inc.).” for “Inc.).”
(§2) For the quantification of cancer angiogenesis, sprout area and the number of sprouts were manually quantified by using Image J. For quantification of cancer intravasation, the microvessels were stained with CD31 and fluorescence imaged, and cancer cells at the apical side of the microvessel were manually counted using the IMARIS software.
As a vessel to assess the transendothelial migration of MDA-MB-231 cancer cells, the microvessel obtained in the present invention was used. […] The number of cancer cells intravasated into the microvessels was manually counted. […]

microvessels (HUVEC) = test: Microvessel permeability coefficient by time-lapse FITC-dextran imaging; conditions: 5 ng/ml TNF-α over 24 h
Method: as §1
To quantify the success rate of the smooth and continuous boundary of microvessels, the length of the vessel boundary was measured, and compared with the straight-line length of the blood vessel channel along the microvessel by use of image J. When the boundary length value was within ±10% of the linear length of the vascular channel, the chip was regarded as success. […] The acquired time-lapse image was analyzed using Image J, and the permeability coefficient was calculated using Equation 1 below: […]
The present inventors introduced 20 kDa FITC-dextran solution into the microvessel to verify the patency of the lumen, and visualized the behavior of the lumen using fluorescence microscopy. […] The present inventors analyzed the junctions by fluorescent immunostaining for claudin-5 and ZO-1 (FIGS. 3C and 3D). […]

[2] = test system: blood vessels and pericytes (HUVEC-pericyte co-culture); test: Response of co-cultured blood vessels and pericytes to added factors; conditions: factor added to blood vessel-pericyte co-culture of Example 5; compared to control group (FIG. 13)
[3] = test system: HUVEC microvessels with U87MG cells; test: Cancer angiogenesis assay in microfluidic chip (angiogenic sprouting from microvessels induced by U87MG cells); conditions: bevacizumab 500 μg/ml
Method: Human umbilical vein endothelial cells (HUVEC, Lonza) were cultured in endothelial cell growth medium (EGM-2, Lonza). Normal human lung fibroblasts (LF, Lonza) were cultured in fibroblast growth medium (FGM-2, Lonza). Human glioblastoma cells (U87MG, ATCC, Virginia) were cultured in DMEM medium supplemented with 10% fetal bovine serum (FBS), penicillin (100 U/ml) and streptomycin (100 U/ml). MDA-MA-231 cells were purchased from the ATCC (Manassas, Va.). MDA-MB-231 cells were transfected with a pEGFP plasmid, and cells were selected using 1 mg/ml G418 (A.G. scientific, Inc.). MDA-MA-231 GFP cells obtained from monoclones were incubated in RPMI1640 (WELGENE, Korea) supplemented with 10% fetal bovine serum, 1% penicillin/streptomycin (Gibco, BRL) and 250 μg/ml G418 (A.G. scientific, Inc.). All cells were incubated in a humidified incubator at 37° C. under 5% CO2. For immunostaining, endothelial cells were imaged using mouse monoclonal antibodies specific for human ZO-1 (Alexa Fluor594, clone ZO1-1A12, molecular probe), CD31 ([…], clone WM59, Biolegends), VE-cadherin (eBioscience) and claudin-5 (Invitrogen), and the nucleus was stained with Hoechst 33342 (molecular probe). Bevacizumab (Avastin, Genentech) was diluted to 500 μg/ml, and microvessels introduced with cancer were treated with the dilution in cancer angiogenesis experiments. Recombinant human TNF-alpha (PetroTech) was diluted to 5 ng/ml, and microvessels were treated with the dilution at 24 hours before introduction of cancer. […]
as §2
The present inventors analyzed the angiogenic potential of cancer cells by using the microvessels having a smooth vessel wall. […]

[4] = 3 days after introduction of U87MG cells, versus U87MG without bevacizumab

Molecule	VE-cadherin junction morphology (VE-cadherin)	rate of cancer intravasation relative to control ([1]; 5 ng/ml TNF-α 24 hours before introduction of MDA-MB-231 cells, n=7 chips per condition) [fold]	rate of cancer intravasation (in words) ([1]; TNF-α-treated microvessels compared with control experiment, p<0.0005)	permeability of TNF-α-treated microvessels (microvessels (HUVEC); mean±standard error, n=5 chips)	permeability relative to normal condition (microvessels (HUVEC); versus normal condition) [fold]	response of pericytes and blood vessels [2]	coverage area of sprouts [3, 4]	number of sprouts [3, 4]	microvascular sprouts / vessel boundary in micrographs ([3]; microscopic images 3 days after injection of cancer cells (FIG. 4A))
TNF-α	disrupted and pleated form; also recorded: disrupted continuity and wrinkled morphology	3	very high rate of cancer intravasation	2.22±0.67×10^−6 cm/s	1.4	pericytes sprouted out from the blood vessels and formed many filopodia			
bevacizumab: anti-vascular endothelial growth factor (anti-VEGF) antibody, Avastin, Genentech							significantly reduced; also recorded: drastically decreasing	significantly reduced; also recorded: drastically decreasing	greatly reduced; also recorded: flat boundary without angiogenic sprouts
B1						pericytes sprouted out from the blood vessels and formed many filopodia			
